Target: T1, NLRP3 (Homo sapiens, UniProt Q96P20)
T1 construct: purified human His-GFP-NLRP3; NACHT domain mapped by DARTS
Assay: microscale thermophoresis with purified GFP-NLRP3; DARTS and C409A mutation support
Type: binding

T1 sequence (Q96P20 whole entry, the tested form may be a part): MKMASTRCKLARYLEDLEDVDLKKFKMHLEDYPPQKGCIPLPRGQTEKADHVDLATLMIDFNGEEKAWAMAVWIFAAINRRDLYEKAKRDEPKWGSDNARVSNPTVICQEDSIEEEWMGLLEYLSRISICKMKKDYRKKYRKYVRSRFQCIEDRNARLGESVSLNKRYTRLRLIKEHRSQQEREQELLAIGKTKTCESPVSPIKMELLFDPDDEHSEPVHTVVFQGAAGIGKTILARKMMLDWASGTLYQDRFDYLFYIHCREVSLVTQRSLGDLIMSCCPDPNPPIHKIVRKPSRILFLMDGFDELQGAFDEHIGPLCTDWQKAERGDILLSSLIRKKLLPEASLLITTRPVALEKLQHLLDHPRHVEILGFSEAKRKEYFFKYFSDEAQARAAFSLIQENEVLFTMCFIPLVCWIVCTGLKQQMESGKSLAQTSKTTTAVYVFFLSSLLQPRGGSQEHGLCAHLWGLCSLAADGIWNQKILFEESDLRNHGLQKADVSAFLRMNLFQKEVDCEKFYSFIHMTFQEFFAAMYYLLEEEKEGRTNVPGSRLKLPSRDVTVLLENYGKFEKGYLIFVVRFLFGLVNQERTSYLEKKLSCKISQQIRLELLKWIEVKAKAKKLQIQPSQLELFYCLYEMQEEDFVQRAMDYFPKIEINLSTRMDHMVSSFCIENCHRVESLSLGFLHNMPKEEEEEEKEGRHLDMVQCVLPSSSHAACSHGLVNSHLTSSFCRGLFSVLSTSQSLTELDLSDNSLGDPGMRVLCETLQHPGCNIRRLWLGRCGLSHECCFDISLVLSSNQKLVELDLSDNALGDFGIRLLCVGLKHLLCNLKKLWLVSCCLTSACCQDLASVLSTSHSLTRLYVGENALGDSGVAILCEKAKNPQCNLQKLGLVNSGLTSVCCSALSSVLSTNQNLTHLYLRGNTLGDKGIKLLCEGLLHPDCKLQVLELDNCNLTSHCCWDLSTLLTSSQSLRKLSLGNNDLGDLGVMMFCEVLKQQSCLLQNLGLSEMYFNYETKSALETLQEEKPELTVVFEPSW

With `O=C(CBr)NCc1ccc(C(F)(F)F)cc1` [149-01] the Kd was 0.0482 µM.

— publication PMC8892206, “An RRx-001 Analogue With Potent Anti-NLRP3 Inflammasome Activity but Without High-Energy Nitro Functional Groups” (Frontiers in Pharmacology, 2022)
